Toxicity data for 1 compound are collected here from patent US4584305A, “Aiding the regression of neoplastic disease with 2,3,5,6-tetrahydro-6-phenylimidazo[2,1-b]thiazole” (Janssen Pharmaceutica N.V., priority 1981, dated 1986).

This data set is described as follows: Toxicity (mouse LD50). Type of data set: in vivo.

SMILES strings stand for the structures.

With `c1ccc(C2CN3CCSC3=N2)cc1` (stereo not shown) [levamisole, 2,3,5,6-tetrahydro-6-phenyl-imidazo[2,1-b]thiazole], the toxicity entry is on record as “devoid of toxicity”.
